From patent US10130642B2, “Neprilysin inhibitors” (THERAVANCE BIOPHARMA R&D IP, LLC, priority 2011, dated 2018)

These molecules were tested against human NEP (Homo sapiens (Human), UniProt P08473) (assay: In vitro enzyme inhibition assay, inhibitor potencies at human NEP). Details: not given.
Chain of human NEP (P08473 52-750): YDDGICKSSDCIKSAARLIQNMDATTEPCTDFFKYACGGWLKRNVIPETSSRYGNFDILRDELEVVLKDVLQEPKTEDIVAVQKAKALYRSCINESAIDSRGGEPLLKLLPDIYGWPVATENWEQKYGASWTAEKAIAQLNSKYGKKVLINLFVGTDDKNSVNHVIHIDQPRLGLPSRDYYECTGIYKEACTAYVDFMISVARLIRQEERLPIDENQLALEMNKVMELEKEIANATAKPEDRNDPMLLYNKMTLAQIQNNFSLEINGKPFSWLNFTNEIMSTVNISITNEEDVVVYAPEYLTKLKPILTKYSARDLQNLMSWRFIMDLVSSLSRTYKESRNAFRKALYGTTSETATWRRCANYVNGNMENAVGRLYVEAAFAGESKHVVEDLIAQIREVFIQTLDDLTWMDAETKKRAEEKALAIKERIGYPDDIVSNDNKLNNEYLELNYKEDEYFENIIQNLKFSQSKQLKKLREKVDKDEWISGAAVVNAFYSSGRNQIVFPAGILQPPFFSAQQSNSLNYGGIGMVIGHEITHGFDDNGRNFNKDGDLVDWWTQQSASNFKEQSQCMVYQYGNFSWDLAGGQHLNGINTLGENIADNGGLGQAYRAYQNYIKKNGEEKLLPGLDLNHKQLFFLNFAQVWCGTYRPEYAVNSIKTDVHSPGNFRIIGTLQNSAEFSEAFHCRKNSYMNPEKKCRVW

Question: With `O=C(N[C@H](Cc1ccc(-c2ccccc2)cc1)C[C@@H](CO)C(=O)O)c1nc(Cl)n[nH]1` [Example 2A, (2S,4S)-5-Biphenyl-4-yl-4-[(5-chloro-2H-[1,2,4]-triazole-3-carbonyl)-amino]-2-hydroxymethyl-pentanoic acid] as the molecule, how does the Ki read?
Answer: 1.26 to 10 nM

Question: How did the Ki turn out when `O=C(N[C@H](Cc1ccc(-c2ccccc2)cc1)C[C@H](CO)C(=O)O)c1cnn[nH]1` [Example 4-1, (2R,4S)-5-Biphenyl-4-yl-2-hydroxymethyl-4-[(3H-[1,2,3]triazole-4-carbonyl)-amino]-pentanoic acid] was run?
Answer: 1.26 to 10 nM

Question: `O=C(N[C@H](Cc1ccc(-c2ccccc2F)cc1)C[C@@H](CO)C(=O)O)c1cnn[nH]1` [Example 4-2, (2S,4S)-5-(2′-Fluorobiphenyl-4-yl)-2-hydroxymethyl-4-[(3H-[1,2,3]triazole-4-carbonyl)-amino]-pentanoic acid] was tested. Which Ki did it give?
Answer: ≤ 1 nM

Question: For `O=C(N[C@H](Cc1ccc(-c2cccc(F)c2)cc1)C[C@@H](CO)C(=O)O)c1cnn[nH]1` [Example 4-3, (2S,4S)-5-(3′-Fluorobiphenyl-4-yl)-2-hydroxymethyl-4-[(3H-[1,2,3]triazole-4-carbonyl)-amino]-pentanoic acid], which Ki is on record?
Answer: ≤ 1 nM

Question: Which Ki does the source give for `O=C(N[C@H](Cc1ccc(-c2ccccc2)cc1)C[C@@H](CO)C(=O)O)c1cn(O)nn1` [Example 4-7, (2S,4S)-5-Biphenyl-4-yl-2-hydroxymethyl-4-[(1-hydroxy-1H-[1,2,3]triazole-4-carbonyl)-amino]-pentanoic acid] here?
Answer: ≤ 1 nM

Question: For `O=C(N[C@H](Cc1ccc(-c2ccccc2F)cc1)C[C@@H](CO)C(=O)O)c1cn(O)nn1` [Example 4-8, (2S,4S)-5-(2′-Fluorobiphenyl-4-yl)-2-hydroxymethyl-4-[(1-hydroxy-1H-[1,2,3]triazole-4-carbonyl)-amino]-pentanoic acid], which Ki is on record?
Answer: ≤ 1 nM

Question: How did the Ki turn out when `O=C(N[C@H](Cc1ccc(-c2cccc(Cl)c2)cc1)C[C@@H](CO)C(=O)O)c1c[nH]nn1` [Example 4-9, (2S,4S)-5-(3′-Chloro-biphenyl-4-yl)-2-hydroxymethyl-4-[(1H-[1,2,3]triazole-4-carbonyl)-amino]-pentanoic acid] was run?
Answer: ≤ 1 nM

Question: Which Ki does the source give for `O=C(N[C@H](Cc1ccc(-c2cccc(Cl)c2)cc1)C[C@@H](CO)C(=O)O)c1cn(O)nn1` [Example 4-10, (2S,4S)-5-(3′-Chloro-biphenyl-4-yl)-2-hydroxymethyl-4-[(1-hydroxy-1H-[1,2,3]triazole-4-carbonyl)-amino]-pentanoic acid] here?
Answer: ≤ 1 nM

Question: With `Cc1n[nH]c(C(=O)N[C@H](Cc2ccc(-c3ccccc3)cc2)C[C@@H](CO)C(=O)O)n1` [Example 4-13, (2S,4S)-5-Biphenyl-4-yl-2-hydroxymethyl-4-[(5-methyl-2H-[1,2,4]triazole-3-carbonyl)-amino]-pentanoic acid] as the molecule, how does the Ki read?
Answer: 12.6 to 100 nM

Question: `O=C(N[C@H](Cc1ccc(-c2ccccc2)cc1)C[C@@H](CO)C(=O)O)c1nc(O)n[nH]1` [Example 4-14, (2S,4S)-5-Biphenyl-4-yl-2-hydroxymethyl-4-[(5-hydroxy-2H-[1,2,4]triazole-3-carbonyl)-amino]-pentanoic acid] was tested. Which Ki did it give?
Answer: ≤ 1 nM

Question: How did the Ki turn out when `O=C(N[C@H](Cc1ccc(-c2ccccc2F)cc1)C[C@@H](CO)C(=O)O)c1nc(Cl)n[nH]1` [Example 4-16, (2S,4S)-4-[(5-Chloro-2H-[1,2,4]triazole-3-carbonyl)-amino]-5-(2′-fluorobiphenyl-4-yl)-2-hydroxymethyl-pentanoic acid] was run?
Answer: ≤ 1 nM

Question: `O=C(N[C@H](Cc1ccc(-c2ccccc2)cc1)C[C@@H](CO)C(=O)O)c1cc(O)n[nH]1` [Example 4-17, (2S,4S)-5-Biphenyl-4-yl-2-hydroxymethyl-4-[(5-hydroxy-2H-pyrazole-3-carbonyl)-amino]-pentanoic acid] was tested. Which Ki did it give?
Answer: ≤ 1 nM

Question: How did the Ki turn out when `O=C(O)c1cc(C(=O)N[C@H](Cc2ccc(-c3ccccc3)cc2)C[C@@H](CO)C(=O)O)[nH]n1` [Example 4-18, 5-((1S,3S)-1-Biphenyl-4-ylmethyl-3-carboxy-4-hydroxy-butylcarbamoyl)-1H-pyrazole-3-carboxylic acid] was run?
Answer: ≤ 1 nM

Question: With `CN(C)C(=O)c1cc(C(=O)N[C@H](Cc2ccc(-c3ccccc3)cc2)C[C@H](CO)C(=O)O)[nH]n1` [Example 4-20, (2R,4S)-5-Biphenyl-4-yl-4-[(5-dimethylcarbamoyl-2H-pyrazole-3-carbonyl)-amino]-2-hydroxymethyl-pentanoic acid] as the molecule, how does the Ki read?
Answer: 12.6 to 100 nM

Question: With `CN(C)C(=O)c1cc(C(=O)N[C@H](Cc2ccc(-c3ccccc3)cc2)C[C@@H](CO)C(=O)O)[nH]n1` [Example 4-21, (2S,4S)-5-Biphenyl-4-yl-4-[(5-dimethylcarbamoyl-2H-pyrazole-3-carbonyl)-amino]-2-hydroxymethyl-pentanoic acid] as the molecule, how does the Ki read?
Answer: 1.26 to 10 nM

Question: For `O=C(N[C@H](Cc1ccc(-c2ccccc2)cc1)C[C@@H](CO)C(=O)O)c1cc(C(=O)N2CCC2)n[nH]1` [Example 4-24, (2S,4S)-4-{[5-(Azetidine-1-carbonyl)-2H-pyrazole-3-carbonyl]-amino}-5-biphenyl-4-yl-2-hydroxymethyl-pentanoic acid], which Ki is on record?
Answer: ≤ 1 nM

Question: Which Ki does the source give for `O=C(N[C@H](Cc1ccc(-c2ccccc2)cc1)C[C@@H](CO)C(=O)O)c1cc(C(=O)N2CCCC2)n[nH]1` [Example 4-25, (2S,4S)-5-Biphenyl-4-yl-2-hydroxymethyl-4-{[5-(pyrrolidine-1-carbonyl)-2H-pyrazole-3-carbonyl]-amino}-pentanoic acid] here?
Answer: ≤ 1 nM

Question: With `O=C(N[C@H](Cc1ccc(-c2ccccc2)cc1)C[C@@H](CO)C(=O)O)c1cc(-c2ccccc2Cl)n[nH]1` [Example 4-27, (2S,4S)-5-Biphenyl-4-yl-4-{[5-(2-chloro-phenyl)-2H-pyrazole-3-carbonyl]-amino}-2-hydroxymethyl-pentanoic acid] as the molecule, how does the Ki read?
Answer: ≤ 1 nM

Question: With `CCCCc1cc(C(=O)N[C@H](Cc2ccc(-c3ccccc3)cc2)C[C@@H](CO)C(=O)O)[nH]n1` [Example 4-28, (2S,4S)-5-Biphenyl-4-yl-4-[(5-butyl-2H-pyrazole-3-carbonyl)-amino]-2-hydroxymethyl-pentanoic acid] as the molecule, how does the Ki read?
Answer: ≤ 1 nM

Question: Which Ki does the source give for `O=C(N[C@H](Cc1ccc(-c2cccc(F)c2)cc1)C[C@@H](CO)C(=O)O)c1cc(-c2ccccc2Cl)n[nH]1` [Example 4-29, (2S,4S)-4-{[5-(2-Chlorophenyl)-2H-pyrazole-3-carbonyl]-amino}-5-(3′-fluorobiphenyl-4-yl)-2-hydroxymethyl-pentanoic acid] here?
Answer: ≤ 1 nM

Question: With `O=C(N[C@H](Cc1ccc(-c2cccc(F)c2)cc1)C[C@@H](CO)C(=O)O)c1cc(-c2ccccn2)n[nH]1` [Example 4-30, (2S,4S)-5-(3′-Fluorobiphenyl-4-yl)-2-hydroxymethyl-4-[(5-pyridin-2-yl-2H-pyrazole-3-carbonyl)-amino]-pentanoic acid] as the molecule, how does the Ki read?
Answer: ≤ 1 nM

Question: `O=C(N[C@H](Cc1ccc(-c2ccccc2)cc1)C[C@@H](CO)C(=O)O)c1c[nH]c(O)n1` [Example 4-31, (2S,4S)-5-Biphenyl-4-yl-4-[(2-hydroxy-1H-imidazole-4-carbonyl)-amino]-2-hydroxymethyl-pentanoic acid] was tested. Which Ki did it give?
Answer: 12.6 to 100 nM

Question: Which Ki does the source give for `O=C(NC(Cc1ccc(-c2ccccc2)cc1)C[C@@H](CO)C(=O)O)c1cc(F)c2nn[nH]c2c1` (stereo partly drawn) [Example 4-33, (S)-5-Biphenyl-4-yl-4-[(7-fluoro-3H-benzotriazole-5-carbonyl)-amino]-2-hydroxymethyl-pentanoic acid] here?
Answer: ≤ 1 nM

Question: How did the Ki turn out when `O=C(N[C@H](Cc1ccc(-c2cccc(Cl)c2)cc1)C[C@@H](CO)C(=O)O)c1ccc2nnn(O)c2c1` [Example 4-34, (2S,4S)-5-(3′-Chloro-biphenyl-4-yl)-4-[(3-hydroxy-3H-benzotriazole-5-carbonyl)-amino]-2-hydroxymethyl-pentanoic acid] was run?
Answer: ≤ 1 nM

Question: `O=C(NC(Cc1ccc(-c2ccccc2)cc1)C[C@H](CO)C(=O)O)c1cc(Cl)c2nc[nH]c2c1` (stereo partly drawn) [Example 4-36, (R)-5-Biphenyl-4-yl-4-[(7-chloro-3H-benzoimidazole-5-carbonyl)-amino]-2-hydroxymethyl-pentanoic acid] was tested. Which Ki did it give?
Answer: 1.26 to 10 nM

Question: How did the Ki turn out when `Cc1nc2c(Cl)cc(C(=O)NC(Cc3ccc(-c4ccccc4)cc3)C[C@H](CO)C(=O)O)cc2[nH]1` (stereo partly drawn) [Example 4-38, (R)-5-Biphenyl-4-yl-4-[(7-chloro-2-methyl-3H-benzoimidazole-5-carbonyl)-amino]-2-hydroxymethyl-pentanoic acid] was run?
Answer: 12.6 to 100 nM

Question: For `O=C(NC(Cc1ccc(-c2ccccc2)cc1)C[C@@H](CO)C(=O)O)c1cnc2nn[nH]c2c1` (stereo partly drawn) [Example 4-43, (S)-5-Biphenyl-4-yl-2-hydroxymethyl-4-[(1H-[1,2,3]triazolo[4,5-b]pyridine-6-carbonyl)-amino]-pentanoic acid], which Ki is on record?
Answer: 1.26 to 10 nM

Question: How did the Ki turn out when `O=C(N[C@H](Cc1ccc(-c2ccccc2)cc1)C[C@@H](CO)C(=O)O)c1cc(O)no1` [Example 4-45, (2S,4S)-5-Biphenyl-4-yl-4-[(3-hydroxy-isoxazole-5-carbonyl)-amino]-2-hydroxymethyl-pentanoic acid] was run?
Answer: ≤ 1 nM

Question: For `O=C(N[C@H](Cc1ccc(-c2ccccc2)cc1)C[C@@H](CO)C(=O)O)c1cnc(O)nc1` [Example 4-47, (2S,4S)-5-Biphenyl-4-yl-2-hydroxymethyl-4-[(2-hydroxy-pyrimidine-5-carbonyl)-amino]-pentanoic acid], which Ki is on record?
Answer: ≤ 1 nM

Question: How did the Ki turn out when `C[C@@](CO)(C[C@@H](Cc1ccc(-c2ccccc2)cc1)NC(=O)c1nc(Cl)n[nH]1)C(=O)O` [Example 6-1, (2S,4R)-5-Biphenyl-4-yl-4-[(5-chloro-2H-[1,2,4]triazole-3-carbonyl)-amino]-2-hydroxymethyl-2-methyl-pentanoic acid] was run?
Answer: 1.26 to 10 nM

Same assay, conditions: pKi values at human NEP; recombinant human NEP, fluorogenic peptide substrate, 37° C.

Question: For `O=C(N[C@H](Cc1ccc(-c2ccccc2)cc1)C[C@@H](CO)C(=O)O)c1cnn[nH]1` [Example 1B, (2S,4S)-5-Biphenyl-4-yl-2-hydroxymethyl-4-[(3H-[1,2,3]triazole-4-carbonyl)-amino]-pentanoic acid], which pKi is on record?
Answer: ≥9.0

Question: Which pKi does the source give for `O=C(N[C@H](Cc1ccc(-c2cccc(F)c2)cc1)C[C@@H](CO)C(=O)O)c1nc(Cl)n[nH]1` [Example 3B, (2S,4S)-4-[(5-Chloro-2H-[1,2,4]triazole-3-carbonyl)amino]-5-(3′-fluorobiphenyl-4-yl)-2-hydroxymethyl-pentanoic acid] here?
Answer: ≥9.0

Question: How did the pKi turn out when `COCCN(C)C(=O)c1cc(C(=O)N[C@H](Cc2ccc(-c3ccccc3)cc2)C[C@@H](CO)C(=O)O)[nH]n1` [Example 4-22] was run?
Answer: 8.0-8.9
